From patent US20160115540A1, “PRODRUGS AND DRUGS” (Biogen MA Inc., priority 2013, published 2016)
Structures can show the parent of a compound that is named as a salt.

Test system: liver
Assay: Transcriptional profiling on Affymetrix GeneChips, single dose, naïve mice: liver
Assay type: in vivo, C57BL/6 mice
Settings: for Number of differentially expressed genes identified: Liver: Naïve, Single Dose, 100 mpk, vs Vehicle
Description: Treated mice were sacrificed at 2, 7, or 12 hours. Tissues (liver, spleen, kidney, jejunum, cortex, hippocampus, striatum and whole blood) were collected and analyzed by transcriptional profiling on mouse Affymetrix GeneChips.
Tissues (liver, spleen, kidney, jejunum, cortex, hippocampus, striatum and whole blood) were collected and analyzed by transcriptional profiling on mouse Affymetrix GeneChips.
Animals were exposed to CO2 and whole blood collected via cardiac puncture. Two 100 μl aliquots of whole blood were collected in 1.5 mL microcentrifuge tubes and snap frozen in liquid nitrogen. Peripheral (liver, spleen, kidney and jejunum) and CNS brain (cerebellum, hippocampus, striatum and cortex) tissues were harvested and snap frozen in liquid nitrogen, with special care taken to collect tissues of similar size and from the same location. All samples were stored at −80° C. until RNA extraction was conducted.
For RNA preparation, frozen tissues were placed in 2 mL RNAse-free 96-well blocks with 1.5 mL QIAzol Lysis Reagent (QIAgen) and a 3.2 mm stainless steel bead (BioSpec Products, Bartlesville, Okla.). Tissues were disrupted for four cycles of 45 seconds in a Mini-Beadbeater (Biospec Products). RNA was extracted in chloroform and the aqueous phase was mixed with an equal volume of 70% ethanol. Extracted RNA was applied to RNeasy 96 plates and purified by the spin method according to the manufacturer's protocol (RNeasy 96 Universal Tissue Protocol, QIAgen, Hilden Germany).
Automated sample amplifications and biotin labelings were carried out using the NuGEN Ovation RNA Amplification system V2 (Cat #3100), Ovation WB reagent (Cat #1300) and Encore Biotin module (Cat #4200) (NuGEN Technologies, Inc, San Carlos, Calif.) according to manufacturer's recommendations using an Arrayplex automated liquid handler (Beckman Coulter, Indianapolis, Ind.). Two micrograms of biotin labeled sscDNA probe were hybridized to Affymetrix GeneChip Affymetrix HT_MG-430_PM plate arrays with modified conditions as described in Allaire et al. Washing and staining of the hybridized arrays were completed as described in the GeneChip Expression analysis technical manual for HT plate arrays using the Genechip® Array Station (Affymetrix, Santa Clara, Calif.) with modifications as described in Allaire et al. The processed GeneChip® plate arrays were scanned using GeneTitan scanner (Affymetrix, Santa Clara, Calif.).
Affymetrix scans were subject to quality control (QC) measures. These tests included a visual inspection of the distribution of raw signal intensities and an assessment of RNA degradation, relative log expression (RLE), and normalized unsealed standard error (NUSE). All sample scans that passed these QC metrics were included in the analysis.
All CEL files were subjected to GC-content-based Robust Multi-array Average (GCRMA) normalization (version 2.20.0) (Irizarry R A, et al. Nucleic Acids Res 2003; 31:e15; Li C, et al. Genome Biol 2001; 2:[…]0032). Expression levels were log (base 2) transformed.
All calculations and analyses were carried out using R (version 2.11.1) and Bioconductor computational tools (Gentleman R. Springer Science+Business Media 2005).

[1] = liver, 100 mg/kg, 2 hr, vs matched vehicle controls

SMILES: COC(=O)/C=C/C(=O)O [MMF, monomethyl fumarate]
- FC 1437867_PM_at (no gene symbol) (LIVER, 100MMF-vs-Veh, 2 h): 1.50
- FC 1444516_PM_at (no gene symbol) (LIVER, 100MMF-vs-Veh, 2 h): 2.19
- FC 1447411_PM_at (no gene symbol) (LIVER, 100MMF-vs-Veh, 2 h): 2.81
- FC 9130221J17Rik (1443159_PM_at) (LIVER, 100MMF-vs-Veh, 2 h): 1.57
- FC Abcc1 (1452233_PM_at) (LIVER, 100MMF-vs-Veh, 2 h): 1.86
- FC Akr1b8 (1448894_PM_at) (LIVER, 100MMF-vs-Veh, 2 h): 2.27
- FC Caprin1 (1448348_PM_at) (LIVER, 100MMF-vs-Veh, 2 h): −1.56
- FC Clec4d (1420804_PM_s_at) (LIVER, 100MMF-vs-Veh, 2 h): 2.05
- FC Csnk2a1 (1419038_PM_a_at) (LIVER, 100MMF-vs-Veh, 2 h): −1.62
- FC Figf (1438953_PM_at) (LIVER, 100MMF-vs-Veh, 2 h): 2.25
- FC Figf (1438954_PM_x_at) (LIVER, 100MMF-vs-Veh, 2 h): 1.79
- FC Fxr1 (1452247_PM_at) (LIVER, 100MMF-vs-Veh, 2 h): −1.53
- FC Gclc (1424296_PM_at) (LIVER, 100MMF-vs-Veh, 2 h): 1.72
- FC Gclc (1455959_PM_s_at) (LIVER, 100MMF-vs-Veh, 2 h): 1.64
- FC Hmox1 1448239_PM_at (LIVER, 100MMF-vs-Veh, 2 h): 2.41
- FC Meis2 (1440091_PM_at) (LIVER, 100MMF-vs-Veh, 2 h): −1.67
- FC Pgd (1436771_PM_x_at) (LIVER, 100MMF-vs-Veh, 2 h): 1.61
- FC Pgd (1437380_PM_x_at) (LIVER, 100MMF-vs-Veh, 2 h): 1.65
- FC Ppfibp2 (1417801_PM_a_at) (LIVER, 100MMF-vs-Veh, 2 h): 2.55
- FC Prpf38b (1455016_PM_at) (LIVER, 100MMF-vs-Veh, 2 h): −1.53
- FC Srxn1 (1419942_PM_at) (LIVER, 100MMF-vs-Veh, 2 h): 1.68
- FC Srxn1 (1426875_PM_s_at) (LIVER, 100MMF-vs-Veh, 2 h): 1.63
- FC Srxn1 (1451680_PM_at) (LIVER, 100MMF-vs-Veh, 2 h): 1.55
- FC 2010003K11Rik (1424626_PM_at) (LIVER, 100MMF-vs-Veh, 7 h): 2.20
- FC 4930588G05Rik (1430175_PM_at) (LIVER, 100MMF-vs-Veh, 7 h): −1.76
- FC Akr1b8 (1448894_PM_at) (LIVER, 100MMF-vs-Veh, 7 h): 1.75
- FC Bmp6 (1450759_PM_at) (LIVER, 100MMF-vs-Veh, 7 h): 1.65
- FC Cda (1427357_PM_at) (LIVER, 100MMF-vs-Veh, 7 h): 1.92
- FC Clec4n (1419627_PM_s_at) (LIVER, 100MMF-vs-Veh, 7 h): 2.40
- FC Erc2 (1434582_PM_at) (LIVER, 100MMF-vs-Veh, 7 h): −1.95
- FC Fzd8 (1445815_PM_at) (LIVER, 100MMF-vs-Veh, 7 h): −1.81
- FC G6pdx (1448354_PM_at) (LIVER, 100MMF-vs-Veh, 7 h): 1.61
- FC Marco (1449498_PM_at) (LIVER, 100MMF-vs-Veh, 7 h): 2.44
- FC Nqo1 (1423627_PM_at) (LIVER, 100MMF-vs-Veh, 7 h): 2.20
- FC Pir (1429001_PM_at) (LIVER, 100MMF-vs-Veh, 7 h): 1.50
- FC Srxn1 (1419942_PM_at) (LIVER, 100MMF-vs-Veh, 7 h): 1.52
- FC Srxn1 (1426875_PM_s_at) (LIVER, 100MMF-vs-Veh, 7 h): 1.53
- FC Srxn1 (1451680_PM_at) (LIVER, 100MMF-vs-Veh, 7 h): 1.58
- FC 1810055G02Rik (1425921_PM_a_at) (LIVER, 100MMF-vs-Veh, 12 h): 1.86
- FC 4933433P14Rik (1431334_PM_a_at) (LIVER, 100MMF-vs-Veh, 12 h): 1.81
- FC Ablim1 (1453103_PM_at) (LIVER, 100MMF-vs-Veh, 12 h): −1.51
- FC Car3 (1460256_PM_at) (LIVER, 100MMF-vs-Veh, 12 h): −1.57
- FC Clmn (1439117_PM_at) (LIVER, 100MMF-vs-Veh, 12 h): −1.54
- FC Ctla2a (1448471_PM_a_at) (LIVER, 100MMF-vs-Veh, 12 h): 1.63
- FC Dnajc12 (1417441_PM_at) (LIVER, 100MMF-vs-Veh, 12 h): 2.53
- FC Fndc3b (1433833_PM_at) (LIVER, 100MMF-vs-Veh, 12 h): 1.66
- FC Gadd45b (1450971_PM_at) (LIVER, 100MMF-vs-Veh, 12 h): 1.50
- FC Gm3579 (1431214_PM_at) (LIVER, 100MMF-vs-Veh, 12 h): 2.74
- FC Hyou1 (1423290_PM_at) (LIVER, 100MMF-vs-Veh, 12 h): 1.82
- FC Hyou1 (1423291_PM_s_at) (LIVER, 100MMF-vs-Veh, 12 h): 1.52
- FC Lrrc59 (1416235_PM_at) (LIVER, 100MMF-vs-Veh, 12 h): 1.65
- FC Nme6 (1448574_PM_at) (LIVER, 100MMF-vs-Veh, 12 h): 1.57
- FC Ppapdc1b (1428154_PM_s_at) (LIVER, 100MMF-vs-Veh, 12 h): 1.87
- FC Ppm1k 1441988_PM_at (LIVER, 100MMF-vs-Veh, 12 h): −1.56
- Number of genes, DMF Only / MMF Only (Liver): 34
- Number of differentially expressed genes identified: Liver (2 h after last dosing): 23
- Number of differentially expressed genes identified: Liver (7 h after last dosing): 15
- Number of differentially expressed genes identified: Liver (12 h after last dosing): 16
- Murine Liver DEGs: Abcc1 (1452233_PM_at) [1]: 1.86
- Murine Liver DEGs: Akr1b8 (1448894_PM_at) [1]: 2.27
- Murine Liver DEGs: Ampd3 (1422573_PM_at) [1]: 1.70
- Murine Liver DEGs: Caprin1 (1448348_PM_at) [1]: −1.56
- Murine Liver DEGs: Clec4d (1420804_PM_s_at) [1]: 2.05
- Murine Liver DEGs: Cmah (1447019_PM_at) [1]: −1.55
- Murine Liver DEGs: Csnk2a1 (1419038_PM_a_at) [1]: −1.62
- Murine Liver DEGs: Figf (1438953_PM_at) [1]: 2.25
- Murine Liver DEGs: Fxr1 (1452247_PM_at) [1]: −1.53
- Murine Liver DEGs: Gclc (1424296_PM_at) [1]: 1.72
- Murine Liver DEGs: Hmox1 (1448239_PM_at) [1]: 2.41
- Murine Liver DEGs: Meis2 (1440091_PM_at) [1]: −1.67
- Murine Liver DEGs: Mkln1 (1416734_PM_at) [1]: −1.69
- Murine Liver DEGs: Pgd (1436771_PM_x_at) [1]: 1.61
- Murine Liver DEGs: Ppfibp2 (1417801_PM_a_at) [1]: 2.55
- Murine Liver DEGs: Prpf38b (1455016_PM_at) [1]: −1.53
- Murine Liver DEGs: Ptprb (1453908_PM_at) [1]: −1.76
- Murine Liver DEGs: Ptprg (1456070_PM_at) [1]: −1.85
